This is an account of results in PubChem BioAssay (NCI).

Test systems include HL-60(TB) leukemia; HS 578T breast; HT29 colon; IGROV1 ovarian; K-562 leukemia; MDA-MB-435; OVCAR-4 ovarian; RPMI-8226 leukemia; SF-295 CNS; UACC-62 melanoma.
Holding throughout (assay): growth of human tumour cells (NCI), 48 h

Each structure is given as a SMILES string.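 Assay format: 96-well plates, 48-hour exposure. Abbreviation: GI50, concentration required for 50% inhibition of growth. TGI: total growth inhibition.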

In the case of `COc1cccc(-n2ncc3c(N/N=C/c4ccc(C(=O)NCCN(C)C)cc4)ncnc32)c1`, the GI50 was 5.58 µM with HL-60(TB) leukemia; 0.57 µM with HS 578T breast; 0.814 µM in the assay with HT29 colon; 1.58 µM in the assay with IGROV1 ovarian; 0.128 µM with K-562 leukemia; 1.93 µM in the assay on MDA-MB-435. For the same compound, the GI50 was 3.16 µM with OVCAR-4 ovarian, 6.33 µM in the assay with RPMI-8226 leukemia, 3.85 µM in the assay with SF-295 CNS and 3.72 µM in the assay with UACC-62 melanoma. Moreover, the TGI with HL-60(TB) leukemia turned out to be 10.5 µM; in the assay with HS 578T breast, 6 µM; in the assay on HT29 colon, 4.55 µM; with IGROV1 ovarian it was 6.16 µM; with K-562 leukemia, 6.65 µM; in the assay on MDA-MB-435 it was 5.81 µM. Also, the TGI with OVCAR-4 ovarian came to 7.56 µM; with RPMI-8226 leukemia, 12.9 µM; in the assay on SF-295 CNS, 7.93 µM; in the assay with UACC-62 melanoma, 7.39 µM.

Regarding `Cn1cccc1-c1cc(-c2cccs2)nc(N)c1C#N`, the GI50 in the assay on HL-60(TB) leukemia, in the assay on HS 578T breast, in the assay on HT29 colon, in the assay on IGROV1 ovarian, in the assay with K-562 leukemia and with MDA-MB-435 was greater than 100 µM in each case. In addition, the GI50 in the assay with OVCAR-4 ovarian is greater than 100 µM; with RPMI-8226 leukemia, greater than 100 µM; in the assay with SF-295 CNS, greater than 100 µM; with UACC-62 melanoma, 87 µM. Moreover, the TGI in the assay with HL-60(TB) leukemia, in the assay on HS 578T breast, in the assay on HT29 colon, with IGROV1 ovarian, in the assay with K-562 leukemia and with MDA-MB-435 was greater than 100 µM in each case. In addition, the TGI in the assay with OVCAR-4 ovarian, in the assay on RPMI-8226 leukemia, in the assay on SF-295 CNS and with UACC-62 melanoma was greater than 100 µM in each case.

`CCCC(C)c1cc(Cc2cc(Cl)cc(Cl)c2O)c(O)c(Cc2cc(Cl)cc(Cl)c2O)c1` (stereo not given): the GI50 with HL-60(TB) leukemia is 1.1 µM; in the assay with HS 578T breast, 0.836 µM; in the assay on HT29 colon it was 2.83 µM; with IGROV1 ovarian, 2.73 µM; in the assay on K-562 leukemia it was 0.34 µM; in the assay with MDA-MB-435, 2.31 µM. Also, the GI50 in the assay with OVCAR-4 ovarian is 2.02 µM; with RPMI-8226 leukemia, 0.363 µM; with SF-295 CNS it was 1.17 µM; with UACC-62 melanoma it was 0.629 µM. For the same compound, the TGI stood at 9.44 µM in the assay on HL-60(TB) leukemia; 8.32 µM in the assay with HS 578T breast; 11.2 µM in the assay with HT29 colon; 14.5 µM in the assay on IGROV1 ovarian; 11.7 µM with K-562 leukemia; 10.3 µM in the assay on MDA-MB-435. The TGI in the assay on OVCAR-4 ovarian was determined as 13.7 µM; in the assay on RPMI-8226 leukemia, 2.5 µM; with SF-295 CNS, 3.56 µM; in the assay with UACC-62 melanoma it was 4.2 µM.

For `CC1OC(O[C@@H]2OC=C(C=O)[C@@]3(O)CC[C@H](C)[C@@H]23)C(O)C(O)C1O` (stereo not given in full), the TGI in the assay with HL-60(TB) leukemia, in the assay on HS 578T breast, in the assay with HT29 colon, in the assay with IGROV1 ovarian, in the assay with K-562 leukemia and in the assay with MDA-MB-435 was greater than 100 µM each time. Also, the TGI with OVCAR-4 ovarian, in the assay with RPMI-8226 leukemia, in the assay with SF-295 CNS and with UACC-62 melanoma was greater than 100 µM in each case.

For the compound `Cc1ccc(N=Nc2c(O)c(C(=O)O)cc3ccccc23)cc1C`, the TGI with HL-60(TB) leukemia, in the assay on HS 578T breast, in the assay with HT29 colon, with IGROV1 ovarian, in the assay with K-562 leukemia and in the assay with MDA-MB-435 was greater than 100 µM in each case. The TGI with OVCAR-4 ovarian, in the assay on RPMI-8226 leukemia, with SF-295 CNS and in the assay with UACC-62 melanoma was greater than 100 µM throughout.

Take `COC(=O)[C@@]1(C)CC[C@]2(C)CC[C@]3(C)C4=CC=C5C(=CC(=O)C(O)=C5C)[C@]4(C)[C@@H](O)C[C@@]3(C)[C@@H]2C1`: the GI50 in the assay on HL-60(TB) leukemia is 9.68 µM; with HS 578T breast, 15.1 µM; in the assay on HT29 colon, 10.8 µM; in the assay with IGROV1 ovarian, 6.73 µM; with K-562 leukemia it was 4.25 µM; in the assay on MDA-MB-435, 10.6 µM. In addition, the GI50 was 8.38 µM in the assay on OVCAR-4 ovarian, 5.17 µM in the assay with RPMI-8226 leukemia, 13.2 µM in the assay on SF-295 CNS and 8.59 µM in the assay with UACC-62 melanoma. For the same compound, the TGI in the assay on HL-60(TB) leukemia is 28.9 µM; with HS 578T breast, 38 µM; in the assay on HT29 colon it was 23.1 µM; in the assay on IGROV1 ovarian, 19.1 µM; in the assay on K-562 leukemia, 20.9 µM; in the assay with MDA-MB-435 it was 21.5 µM. In addition, the TGI in the assay on OVCAR-4 ovarian was found to be 19.7 µM; in the assay with RPMI-8226 leukemia, 27.7 µM; with SF-295 CNS, 28.4 µM; in the assay on UACC-62 melanoma it was 18.9 µM.
